From patent publication US10577373B2, “TYK2 inhibitors and uses thereof” (Nimbus Lakshmi, Inc., priority 2017, dated 2020)
Read-outs that look alike come from different tables or passages of the source.

Assays:
[1] = system: GM-CSF induced STAT5 phosphorylation mediated by the JAK2/JAK2 homdimeric complex; experiment: GM-CSF Induced pSTAT5 in Human PBMC
From the text: Human PBMC are isolated from buffy coat and are stored frozen for assays as needed.

[2] = system: IL-12 induced STAT4 phophorylation mediated by Tyk2/JAK2 (heterodimeric complex); experiment: IL-12 Induced pSTAT4 in Human PBMC; format: cell-based; conditions: 1.7 ng/mL IL-12
From the text: The IL-12 Induced pSTAT4 assay evaluates the inhibition of IL-12 induced STAT4 phophorylation mediated by Tyk2/JAK2 (heterodimeric complex).

[3] = Homo sapiens, PBMC, 20 min, read-out: PBMC_GMCSF_pSTAT5 IC50, human PBMC, GM-CSF 5 ng/mL for 20 minutes, pSTAT5
[4] = read-out: PBMC_GMCSF_pSTAT5 IC50, human PBMC, GM-CSF 5 ng/mL for 20 minutes, pSTAT5

SMILES | IC50 [1, 3] [µM] | IC50 [2] [µM] | IC50 ([1]; Homo sapiens, PBMC, 20 min, read-out: PBMC_GMCSF_pSTAT5 IC50) [µM] | IC50 [1, 4] [µM]
CNc1cc(-c2cn(C(C)C)c3ncccc23)nc2c(C(=O)N[C@@H]3C[C@@H]3F)cnn12 (stereo in doubt) [I-225, N-((1R,2S)-2-fluorocyclopropyl)-5-(1-isopropyl-1H-pyrrolo[2,3-b]pyridin-3-yl)-7-(methylamino)pyrazolo[1,5-a]pyrimidine-3-carboxamide] | > 50 | < 0.1 |  | 
CNc1cc(Nc2cccn(-c3nc(C)co3)c2=O)nc2c(C(=O)N[C@@H]3CC[C@H]3O)cnn12 (stereo in doubt) [I-658, N-((1R,2R)-2-hydroxycyclobutyl)-7-(methylamino)-5-((1-(4-methyloxazol-2-yl)-2-oxo-1,2-dihydropyridin-3-yl)amino)pyrazolo[1,5-a]pyrimidine-3-carboxamide] | > 50 | < 0.1 |  | 
CNC(=O)c1occc1Nc1cc(NC)n2ncc(C(=O)NC3CC3)c2n1 [I-887] | > 50 | < 0.1 |  | 
CNc1cc(Nc2cc(F)cn(-c3cc(C)n(C)n3)c2=O)nc2c(C(=O)N[C@H]3C[C@H]3F)cnn12 [I-385] | > 2.5 | < 0.1 |  | 
CNc1cc(Nc2cccn(-c3nccs3)c2=O)nc2c(C(=O)N[C@H]3C[C@H]3F)cnn12 [I-243] | > 2.5 | < 0.1 |  | 
CNc1cc(Nc2cccnc2OC2CC2)nc2c(C(=O)N[C@@H]3CC[C@@H]3O)cnn12 [I-401] | > 12.5 | < 0.1 |  | 
CNc1cc(Nc2cccn(-c3nc(C)c(C)s3)c2=O)nc2c(C(=O)N[C@H]3C[C@H]3F)cnn12 [I-292] | > 2.5 | < 0.1 |  | 
CNc1cc(Nc2cccnc2OC)nc2c(C(=O)NCC(C)(C)CO)cnn12 [I-346] | > 2.5 | < 0.1 |  | 
CNc1cc(Nc2cccn([C@H]3CC[C@H](OC)CC3)c2=O)nc2c(C(=O)NC3CC3)cnn12 [I-343] | > 12.5 | < 0.1 |  | 
CNc1cc(Nc2cccnc2OC2CC2)nc2c(C(=O)N[C@H]3CC[C@@H]3O)cnn12 [I-397] | > 50 | < 0.1 |  | 
CNc1cc(Nc2cccn(-c3cnn(C)c3)c2=O)nc2c(C(=O)NC3CC3)cnn12 [I-295] | > 50 | < 0.1 |  | 
CNc1cc(Nc2cccnc2OC2CC2)nc2c(C(=O)NC3CCC3O)cnn12 (stereo not shown) [I-392, 5-((2-cyclopropoxypyridin-3-yl)amino)-N-(2-hydroxycyclobutyl)-7-(methylamino)pyrazolo[1,5-a]pyrimidine-3-carboxamide] | > 50 | < 0.1 |  | 
CNc1cc(Nc2cccnc2OC)nc2c(C(=O)NCC3(CO)CC3)cnn12 [I-425] |  | < 0.1 | > 50 | 
CNc1cc(Nc2cc(Cl)cn(-c3cnn(C)c3)c2=O)nc2c(C(=O)NC3CC3)cnn12 [I-311] | > 12.5 | < 0.1 |  | 
CNc1cc(Nc2cccn(-c3cnc(C(=O)N(C)C)cn3)c2=O)nc2c(C(=O)N[C@H]3C[C@H]3F)cnn12 [I-126] | > 50 | < 0.1 |  | 
CNc1cc(Nc2cccnc2OC2CC2)nc2c(C(=O)NC3CCC3)cnn12 [I-216] | > 12.5 | < 0.1 |  | 
CNc1cc(Nc2cccn([C@@H]3CCC[C@H](OC)C3)c2=O)nc2c(C(=O)NCC(C)(C)CO)cnn12 [I-951] | > 50 | < 0.1 |  | 
CNc1cc(Nc2cc(F)cn(-c3ccccn3)c2=O)nc2c(C(=O)NC3CCC3)cnn12 [I-193] | > 12.5 | < 0.1 |  | 
CNc1cc(Nc2cccc(N3CCC34COC4)n2)nc2c(C(=O)N[C@H]3C[C@H]3F)cnn12 [I-709] | > 50 | < 0.1 |  | 
CNc1cc(Nc2cccn(-c3cnn(C)c3)c2=O)nc2c(C(=O)N[C@H]3C[C@H]3F)cnn12 [I-296] | > 50 | < 0.1 |  | 
CNc1cc(Nc2cccn(-c3ccccn3)c2=O)nc2c(C(=O)N[C@H]3CC[C@H]3O)cnn12 [I-805] | > 12.5 | < 0.1 |  | 
CNc1cc(Nc2cc(F)ccc2F)nc2c(C(=O)NC3CC3)cnn12 [I-3] | > 12.5 | < 0.1 |  | 
CNc1cc(Nc2cccn([C@H]3CCCOC3)c2=O)nc2c(C(=O)N[C@@H]3CC[C@H]3O)cnn12 [I-725] | > 2.5 | < 0.1 |  | 
CNc1cc(Nc2cccn(C[C@@H]3CCCCO3)c2=O)nc2c(C(=O)NC3CC3)cnn12 [I-413] | > 50 | < 0.1 |  | 
CNc1cc(-c2cn(C(C)C)c3ncccc23)nc2c(C(=O)N[C@H]3C[C@H](O)C3)cnn12 [I-630, N-((1r,3r)-3-hydroxycyclobutyl)-5-(1-isopropyl-1H-pyrrolo[2,3-b]pyridin-3-yl)-7-(methylamino)pyrazolo[1,5-a]pyrimidine-3-carboxamide] | > 2.5 | < 0.1 |  | 
CNc1cc(Nc2cccnc2OC(C)C)nc2c(C(N)=O)cnn12 [I-72] | > 12.5 | 0.1 to 0.5 |  | 
CNc1cc(Nc2cccn(-c3ccc(C)nn3)c2=O)nc2c(C(=O)NC3CCC3)cnn12 [I-141] | > 50 | < 0.1 |  | 

SMILES | IC50 [1, 3] [µM] | IC50 [2] [µM] | IC50 ([1]; Homo sapiens, PBMC, 20 min, read-out: PBMC_GMCSF_pSTAT5 IC50) [µM] | IC50 [1, 4] [µM]
CNc1cc(Nc2cccn(C3CCN(CCF)CC3)c2=O)nc2c(C(=O)N[C@H]3C[C@H]3F)cnn12 [I-570] | > 50 | < 0.1 |  | 
CNc1cc(Nc2cccn(-c3ncc(C)s3)c2=O)nc2c(C(=O)N[C@H]3CC[C@@H]3O)cnn12 (stereo in doubt) [I-676, N-(2-hydroxycyclobutyl)-7-(methylamino)-5-((1-(5-methylthiazol-2-yl)-2-oxo-1,2-dihydropyridin-3-yl)amino)pyrazolo[1,5-a]pyrimidine-3-carboxamide] | > 2.5 | < 0.1 |  | 
CNc1cc(Nc2cccn(-c3cncc(C)c3)c2=O)nc2c(C(=O)NC3CCC3)cnn12 [I-303] | > 50 | < 0.1 |  | 
CNc1cc(Nc2cccn([C@@H]3CCCOC3)c2=O)nc2c(C(=O)N[C@H]3CC[C@H]3O)cnn12 [I-751] | > 12.5 | < 0.1 |  | 
CNC(=O)c1nscc1Nc1cc(NC)n2ncc(C(=O)N[C@@H]3C[C@@H]3F)c2n1 [I-914] | > 50 | < 0.1 |  | 
CNc1cc(Nc2cccn(-c3ccn(C)n3)c2=O)nc2c(C(=O)NC3CC3)cnn12 [I-294] | > 12.5 | < 0.1 |  | 
CNc1cc(Nc2cccn(-c3cc(C)n(C)n3)c2=O)nc2c(C(=O)NC3CC3)cnn12 [I-138] | > 50 | < 0.1 |  | 
CNc1cc(Nc2cc(F)cnc2OC2CC2)nc2c(C(=O)NC3CC3)cnn12 [I-274] | > 12.5 | < 0.1 |  | 
CNc1cc(Nc2cc(Cl)cn(C3CCN(C)CC3)c2=O)nc2c(C(=O)N[C@@H]3C[C@@H]3F)cnn12 [I-789] | > 12.5 | < 0.1 |  | 
CNc1cc(Nc2cccn(-c3ccn(C)n3)c2=O)nc2c(C(=O)NC3CCC3)cnn12 [I-139] | > 50 | < 0.1 |  | 
CNc1cc(Nc2cccn(CC3CCCCO3)c2=O)nc2c(C(=O)N[C@H]3C[C@H]3F)cnn12 (stereo partly shown) [I-365] | > 50 | < 0.1 |  | 
CNc1cc(Nc2cccn(-c3ccccn3)c2=O)nc2c(C(=O)N[C@H]3C[C@H]3F)cnn12 [I-681] | > 12.5 | < 0.1 |  | 
CNc1cc(-c2cn(C(C)C)c3ncccc23)nc2c(C(=O)N[C@@H]3CC[C@@H]3O)cnn12 [I-578] | > 50 | < 0.1 |  | 
CNc1cc(Nc2cccc(-c3cnn(C)c3)c2Cl)nc2c(C(N)=O)cnn12 [I-17] | > 2.5 | < 0.1 |  | 
CNc1cc(Nc2cccn([C@H]3CC[C@H](OC)CC3)c2=O)nc2c(C(=O)NCC3(CO)CC3)cnn12 [I-545] | > 2.5 | 0.1 to 0.5 |  | 
[2H]C([2H])([2H])Oc1ncccc1Nc1cc(NC)n2ncc(C(=O)N[C@@H]3CC[C@@H]3O)c2n1 (stereo in doubt) [I-391, N-(2-hydroxycyclobutyl)-5-((2-(methoxy-d3)pyridin-3-yl)amino)-7-(methylamino)pyrazolo[1,5-a]pyrimidine-3-carboxamide] |  | < 0.1 |  | > 50
CNc1cc(Nc2cccc(-c3nccs3)c2Cl)nc2c(C(N)=O)cnn12 [I-16] | > 2.5 | < 0.1 |  | 
CNc1cc(Nc2cccnc2OCCOC)nc2c(C(=O)NC3CCC3)cnn12 [I-219] | > 12.5 | < 0.1 |  | 
CNc1cc(Nc2cccn(-c3cnc(C(=O)N(C)C)cn3)c2=O)nc2c(C(=O)NC3CC3)cnn12 [I-127, N-cyclopropyl-5-((1-(5-(dimethylcarbamoyl)pyrazin-2-yl)-2-oxo-1,2-dihydropyridin-3-yl)amino)-7-(methylamino)pyrazolo[1,5-a]pyrimidine-3-carboxamide] | > 12.5 | < 0.1 |  | 
CNc1cc(Nc2cccnc2OC2CC2)nc2c(C(=O)NCC(C)(C)CO)cnn12 [I-350] | > 50 | < 0.1 |  | 
CNc1cc(Nc2cccn3ccnc23)nc2c(C(=O)NC3CC3)cnn12 [I-891] | > 50 | < 0.1 |  | 
CNc1cc(Nc2cccn(-c3nc(C)co3)c2=O)nc2c(C(=O)N[C@@H]3CC[C@@H]3O)cnn12 [I-706] | > 50 | < 0.1 |  | 
CNc1cc(Nc2cc(F)cnc2OC2CC2)nc2c(C(=O)N[C@H]3C[C@H]3F)cnn12 [I-275] | > 50 | < 0.1 |  | 
CNc1cc(Nc2cccc(N3CCCC3=O)n2)nc2c(C(=O)N[C@H]3C[C@H]3F)cnn12 [I-244] | > 12.5 | < 0.1 |  | 
[2H]C([2H])([2H])Oc1ncccc1Nc1cc(NC)n2ncc(C(=O)N[C@H]3CC[C@H](O)C3)c2n1 [I-500] | > 50 | < 0.1 |  | 
CNc1cc(Nc2cccn(-c3ccccn3)c2=O)nc2c(C(=O)N[C@@H]3CC[C@H]3OC)cnn12 (stereo in doubt) [I-816, N-(2-methoxycyclobutyl)-7-(methylamino)-5-((2-oxo-2H-[1,2′-bipyridin]-3-yl)amino)pyrazolo[1,5-a]pyrimidine-3-carboxamide] |  | < 0.1 |  | > 2.5
